Source: patent publication US20060211072A1, “Process, composition and kit for providing a stable whole blood calibrator/control” (Streck, Inc., priority 2005, published 2006)

Key:
[1] = test system: glycolysis in whole blood; details: final concentration about 0.9 to 20 mM in blood sample; testing within 16 hours; cited from earlier work
[2] = test system: glycolysis in whole blood; assay: YSI glucose concentration over time in whole blood specimens with D,L glyceraldehyde added; format: cell-based
Experimental: FIG. 4 illustrates the YSI glucose concentration (mg/dL) of blood specimens containing EDTA at various final concentrations of a mixture of D,L glyceraldehydes at 0.0, 1.0, 5.0, 10.0 and 20.0 mM, obtained over 4 weeks of real time testing at about 2° C. to about 10° C.;
FIG. 5 illustrates the YSI 2300 (reference analyzer) glucose concentration (mg/dL) of blood specimens treated at various concentrations of D,L glyceraldehyde over 3 weeks at about 2° C. to about 10° C., wherein the control is an untreated blood sample;
In one method, a sample containing a cellular component, (i.e. RBCs, WBCs) is collected into a microfuge or vacuum tube, e.g. […]®, (such as supplied by Becton, Dickinson and Company, Franklin Lakes, N.J.). The initial concentration of glucose in the sample can be 50 […].
The vacuum tube may contain any appropriate anticoagulant agent known to one of ordinary skill, including oxalate, EDTA, citrate, heparin or combination thereof, to form a suspension. If used, the anticoagulant may be added together simultaneously, or sequentially, to the sample.
The resulting suspension is incubated at about 2° C. to about 30° C. and allowed to undergo glycolysis until the glucose level is less than about 20 mg/dL. […]

[3] = test system: glycolysis in red blood cells; assay: YSI glucose recovery of red blood cells treated with glyceraldehyde, washed and recombined with plasma and glucose; format: cell-based; details: RBCs treated with 20, 35 and 50 mM for 72 hours at 2-10 C; after 34 days (FIG. 6)
Experimental: FIG. 6 illustrates the YSI 2300 (reference analyzer) glucose concentration (mg/dL) of blood specimens at various concentrations of D,L glyceraldehyde respectively over 4 weeks at about 2° C. to about 10° C., wherein the control is untreated blood sample. Red blood cells were treated, washed and recombined with plasma and glucose.
RBC Treatment w/ Glyceraldehyde & Subsequent Removal
• 1) Employ fresh whole blood collected in standard anticoagulant (i.e. EDTA, heparin, sodium citrate) from a healthy adult population. Alternative blood sources may include bovine, avian, porcine, equine, goat, or alligator. • 2) Allow sufficient time for the natural enzymatic breakdown of glucose to occur (i.e. glycolysis). Deplete glucose concentration to less than about 20 mg/dl. Preferred storage at 2°-30° C. • 3) Separate RBC cellular component from plasma fraction via gravity settling and or centrifugation. If desired, the removed plasma fraction may be retained for reintroduction. • 4) Wash RBC cellular component with isotonic phosphate buffered saline solution (3×). Exchange diluent via centrifugation is preferred (15 minutes @ 1500 rpm (650×g). • 5) Adjust RBC concentration to approximately 4.0×10^6/mm^3±0.25×10^6/mm^3. […]

| SMILES | glucose loss [1] | YSI glucose concentration loss ([2]; 20.0 mM D,L glyceraldehyde in EDTA, at 4 weeks, about 2-10 C (FIG. 4)) | YSI glucose concentration loss ([2]; 30.0 mM D,L glyceraldehyde in EDTA, glucose burned down then added back, at 3 weeks, about 2-10 C (FIG. 5)) | loss in glucose recovery [3] [%] |
| --- | --- | --- | --- | --- |
| O=CC(O)CO (stereo not shown) [glyceraldehyde, 2,3-dihydroxypropanal] | negligible glucose loss |  |  |  |
| O=CC(O)CO (racemic) [D,L glyceraldehyde, 2,3-dihydroxypropanal] |  | less than 10% | less than 3.5% | < 5 |
